Results taken from patent publication US20220062340A1, “IMMUNOTHERAPEUTIC METHODS AND COMPOSITIONS” (KING'S COLLEGE LONDON, priority 2018, published 2022).

Tests used:
RARβ = molecular target: T1, RARβ (Homo sapiens, UniProt P10826); assay: Selectivity profile against human RARs (RARβ); assay type: biochemical
T1 sequence (P10826 1-455): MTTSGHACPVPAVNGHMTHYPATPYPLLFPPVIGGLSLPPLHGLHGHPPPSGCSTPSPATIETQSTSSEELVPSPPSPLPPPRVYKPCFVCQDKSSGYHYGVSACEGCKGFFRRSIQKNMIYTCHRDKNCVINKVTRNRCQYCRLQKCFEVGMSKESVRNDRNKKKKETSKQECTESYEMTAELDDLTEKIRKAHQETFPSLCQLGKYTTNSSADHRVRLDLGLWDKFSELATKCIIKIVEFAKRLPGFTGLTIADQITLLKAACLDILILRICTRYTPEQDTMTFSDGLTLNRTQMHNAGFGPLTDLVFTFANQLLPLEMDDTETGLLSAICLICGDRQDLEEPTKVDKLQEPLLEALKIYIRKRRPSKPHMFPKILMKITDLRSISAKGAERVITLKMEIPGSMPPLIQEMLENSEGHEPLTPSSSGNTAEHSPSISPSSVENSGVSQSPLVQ

RARα = molecular target: T2, RARα (Homo sapiens, UniProt P10276); assay: Selectivity profile against human RARs (RARα agonism); assay type: biochemical
T2 sequence (P10276 1-462): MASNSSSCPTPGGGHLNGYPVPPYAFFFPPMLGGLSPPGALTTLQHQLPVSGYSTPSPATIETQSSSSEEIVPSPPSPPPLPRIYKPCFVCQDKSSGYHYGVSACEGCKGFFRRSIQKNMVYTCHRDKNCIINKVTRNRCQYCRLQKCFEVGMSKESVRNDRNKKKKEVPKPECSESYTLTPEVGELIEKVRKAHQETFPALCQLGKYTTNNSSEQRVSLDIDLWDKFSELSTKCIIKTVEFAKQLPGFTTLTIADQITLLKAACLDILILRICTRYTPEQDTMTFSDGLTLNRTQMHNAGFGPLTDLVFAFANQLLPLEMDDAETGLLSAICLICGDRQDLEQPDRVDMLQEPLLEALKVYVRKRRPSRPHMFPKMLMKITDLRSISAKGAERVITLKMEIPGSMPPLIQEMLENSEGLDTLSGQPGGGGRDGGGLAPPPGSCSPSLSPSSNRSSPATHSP

[1] = system: human foetal small bowel xenografts; assay: C.B-17 SCID mouse human intestinal xenotransplant model, Treg trafficking; assay type: in vivo
Description: Mice are injected with anti-asialo GM1 antibody at day −2 prior to transfer in order to deplete natural killer (NK) cells. On the day of Treg transfer, mice were treated with Tregs that were either expanded with Rapamycin alone or with the addition of RAR568. Mice also received 1000IU of rhlL-2 IP on the day of Treg transfer, to support the Treg in circulation. After three days in circulation, the presence of CFSE labelled Tregs was assessed by FACS in digested xenograft samples and immunofluoresence on frozen sections. […] Induction of α4β7 is functionally relevant in vivo (e) Control XG, no Tregs, (f) XG from mouse treated with Rapa Tregs (g) XG from mouse treated with Rapa+RAR568 Tregs.
The C.B-17 SCID mouse human intestinal xenograft model has been previously described^28,29. Institutional Review Board (IRB) and Institutional Animal Care and Use Committee (IACUC) approvals were obtained prospectively (Ethics Committee for Animal Experimentation, Hebrew University of Jerusalem; MD-11-12692-4 and the Helsinki Committee of the Hadassah University Hospital; 81-23/04/04). Tregs were labelled with CFSE (Invitrogen) prior to transfer, as per manufacturer's instructions. Xenografts were processed as per LPMC digestion protocol. CFSE positive cells were detected by flow cytometry. Additionally, CFSE positive cells were detected by immunofluorescence on frozen sections from treated xenografts.
Fresh xenograft sections were fixed and stored in OCT. Fixed cryostat sections were blocked with 20% fetal calf serum (FCS) and stained with rat anti human CD45 (Invitrogen) and mouse antihuman FOXP3 (Biolegend), followed by donkey anti-rat AF594 (Invitrogen) and donkey anti-mouse NL637 (RnD Systems).
To assess if the induction of α4β7 was functionally relevant in vivo, cells treated with RAR568 or cells expanded under standard conditions were fluorescently labelled and transferred into a SCID mouse xenografted with human fetal intestinal small bowel by intra-venous injection. Inflammation was induced in the xenografts with Mycobactrium Avium Paratuberculosis (MAP). […]

RAR γ = molecular target: T3, RAR γ (Homo sapiens, UniProt P13631); assay: Selectivity profile against human RARs (RARγ); assay type: biochemical
T3 sequence (P13631 1-454): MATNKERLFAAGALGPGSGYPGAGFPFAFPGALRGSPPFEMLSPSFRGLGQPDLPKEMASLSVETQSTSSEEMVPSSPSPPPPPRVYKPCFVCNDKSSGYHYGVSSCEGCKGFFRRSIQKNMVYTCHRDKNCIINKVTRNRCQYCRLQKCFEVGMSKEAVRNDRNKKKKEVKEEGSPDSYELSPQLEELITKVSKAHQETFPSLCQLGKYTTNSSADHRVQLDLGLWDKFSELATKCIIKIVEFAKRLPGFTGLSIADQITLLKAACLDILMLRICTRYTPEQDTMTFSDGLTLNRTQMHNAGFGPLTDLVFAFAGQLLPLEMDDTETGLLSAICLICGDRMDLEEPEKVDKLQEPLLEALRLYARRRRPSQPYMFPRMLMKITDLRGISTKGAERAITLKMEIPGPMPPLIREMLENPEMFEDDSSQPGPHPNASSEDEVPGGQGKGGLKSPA

CCOc1c(Cl)cc(C(=O)Nc2ccc(C(=O)O)c(C)c2)cc1OC(C)C [RAR568]
selectivity for RARα over RARβ (RARβ): 290 fold | EC50 (RARα): 0.59 nM | Treg trafficking to xenografts ([1]; 72 hours following i.v. transfer of agonist-treated Tregs, compared to Tregs expanded under standard conditions): significantly more likely to traffic to xenografts | Treg trafficking to inflamed xenografts ([1]; MAP-induced inflammation, agonist-treated Tregs vs standard conditions): significantly more RAR568-treated cells trafficked to the inflamed xenografts | presence of CFSE labelled FOXP3+ Tregs in cryosections from inflamed xenografts ([1]; immunofluorescence, FIG. 5g): evident | selectivity over RAR γ (RAR γ): > 13,000 fold
